From ChEMBL document CHEMBL1131846, “Selective A1-adenosine receptor antagonists identified using yeast Saccharomyces cerevisiae functional assays” (Bioorg Med Chem Lett, 1999)

What was measured:
Adenosine receptor A2a [1] = target: T1, Adenosine receptor A2a (Homo sapiens, UniProt P29274); test: Inhibitory activity against binding of the [3H]CGS-21680 to human A2a receptor (hA2a) radioligands using competition binding assay at a concentration of 10 uM
Adenosine receptor A2a [2] = target: T1, Adenosine receptor A2a; test: Inhibitory activity against membranes from HEK293 cells stably expressing the human A2a receptor (hA2a); assay type: cell-based
Adenosine receptor A1 [3] = target: T2, Adenosine receptor A1 (Homo sapiens, UniProt P30542); test: Inhibitory activity against binding of [3H]DPCPX to human A1 receptor (hA1) using competition binding assay
T2 sequence (P30542 whole entry): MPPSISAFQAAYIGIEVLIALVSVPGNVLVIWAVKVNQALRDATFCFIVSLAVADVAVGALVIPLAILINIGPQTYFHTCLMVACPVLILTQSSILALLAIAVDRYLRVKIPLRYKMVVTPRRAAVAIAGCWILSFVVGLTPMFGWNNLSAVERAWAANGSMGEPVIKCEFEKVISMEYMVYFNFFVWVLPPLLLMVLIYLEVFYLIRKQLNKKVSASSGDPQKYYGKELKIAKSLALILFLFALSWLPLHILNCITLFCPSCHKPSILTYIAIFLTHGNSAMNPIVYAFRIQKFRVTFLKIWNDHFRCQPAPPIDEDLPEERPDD

Adenosine receptor A1 [4] = target: T2, Adenosine receptor A1; test: Inhibitory activity against membranes from yeast cells transformed with human A1 receptor (hA1); assay type: cell-based
Adenosine receptor A2a [5] = target: T1, Adenosine receptor A2a; test: Inhibitory activity against binding of [3H]CGS-21680 to human A2a receptor (hA2a) using competition binding assay at a concentration of 10 uM
Adenosine receptor A1 [6] = target: T2, Adenosine receptor A1; test: Inhibitory activity against binding of the [3H]DPCPX to human A1 receptor (hA1) radioligands using competition binding assay
Adenosine receptor A2a [7] = target: T1, Adenosine receptor A2a; test: Inhibitory activity against binding of the [3H]CGS-21680 to human A2a receptor (hA2a) radioligands using competition binding assay
Adenosine receptor A2a [8] = target: T1, Adenosine receptor A2a; test: Inhibitory activity against binding of [3H]CGS-21680 to human A2a receptor (hA2a) using competition binding assay
Adenosine receptor A2a [9] = target: T1, Adenosine receptor A2a; test: Inhibitory activity against membranes from HEK293 cells stably expressing the human A2a receptor (hA2a) at a concentration of 10 uM; assay type: cell-based
[10] = target: T3, Adenosine receptor A1 (Homo sapiens) (UniProt P30542); test: Inhibitory activity against binding of [3H]DPCPX to human A1 receptor (hA1) using competition binding assay at a concentration of 10 uM
T3 sequence (whole entry): T2 sequence (P30542 whole entry)

[11] = target: T3, Adenosine receptor A1 (Homo sapiens); test: Inhibitory activity against binding of the [3H]DPCPX to human A1 receptor (hA1) radioligands using competition binding assay at a concentration of 10 uM

T1 sequence (P29274 whole entry): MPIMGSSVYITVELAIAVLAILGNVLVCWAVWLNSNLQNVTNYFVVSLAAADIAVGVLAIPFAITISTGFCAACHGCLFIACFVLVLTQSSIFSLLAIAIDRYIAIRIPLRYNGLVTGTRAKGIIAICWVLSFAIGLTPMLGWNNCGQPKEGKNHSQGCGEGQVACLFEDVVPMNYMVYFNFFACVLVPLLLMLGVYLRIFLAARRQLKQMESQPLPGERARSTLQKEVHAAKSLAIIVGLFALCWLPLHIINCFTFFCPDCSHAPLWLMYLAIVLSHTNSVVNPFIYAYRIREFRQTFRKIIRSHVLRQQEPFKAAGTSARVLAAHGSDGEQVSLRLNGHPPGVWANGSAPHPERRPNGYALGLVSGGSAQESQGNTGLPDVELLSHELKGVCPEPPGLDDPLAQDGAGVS

Work on `Cc1nc2nc(-c3ccccc3)[nH]c(N[C@H](C)c3ccccc3)c-2c1C` yielded an inhibition (Adenosine receptor A2a [1]) of 61%, an IC50 (Adenosine receptor A2a [2]) of 3880 nM and an IC50 (Adenosine receptor A1 [3]) of 1980 nM. For the same compound, the IC50 (Adenosine receptor A1 [4]) was 1610 nM, the inhibition (Adenosine receptor A2a [5]) was 61% and the Ki (Adenosine receptor A1 [6]) was 981 nM.

`CC(=O)NCCNc1nc(-c2ccccc2)nc2[nH]c(C)c(C)c12` gave an IC50 (Adenosine receptor A2a [2]) of 48 nM, a Ki (Adenosine receptor A2a [7]) of 23 nM and an IC50 (Adenosine receptor A2a [8]) of 48 nM.

For `Cc1[nH]c2nc(-c3ccccc3)nc(NCCN3CCNC3=O)c2c1C`, the IC50 (Adenosine receptor A2a [2]) was 725 nM, the Ki (Adenosine receptor A2a [7]) was 215 nM and the IC50 (Adenosine receptor A1 [3]) was 364 nM. The IC50 (Adenosine receptor A1 [4]) was 422 nM, the IC50 (Adenosine receptor A2a [8]) was 604 nM and the Ki (Adenosine receptor A1 [6]) was 144 nM.

Compound `Cc1[nH]c2nc(-c3ccccc3)nc(N[C@@H]3CCCCNC3=O)c2c1C` has an IC50 (Adenosine receptor A2a [2]) of 2110 nM, a Ki (Adenosine receptor A2a [7]) of 962 nM and an IC50 (Adenosine receptor A1 [3]) of 1540 nM. It also gave an IC50 (Adenosine receptor A1 [4]) of 1260 nM, an IC50 (Adenosine receptor A2a [8]) of 2060 nM and a Ki (Adenosine receptor A1 [6]) of 771 nM.

`Cc1[nH]c2nc(-c3ccccc3)nc(N[C@H](CO)CC(C)C)c2c1C` showed an IC50 (Adenosine receptor A2a [2]) of 2680 nM, a Ki (Adenosine receptor A2a [7]) of 1140 nM and an IC50 (Adenosine receptor A1 [3]) of 1910 nM. For the same compound, the IC50 (Adenosine receptor A1 [4]) was 1750 nM, the IC50 (Adenosine receptor A2a [8]) was 3400 nM and the Ki (Adenosine receptor A1 [6]) was 951 nM.

`Cc1[nH]c2nc(-c3ccccc3)nc(N[C@@H]3Cc4ccccc4[C@H]3O)c2c1C` gave an inhibition (Adenosine receptor A2a [1]) of 59%, an IC50 (Adenosine receptor A2a [2]) of 3220 nM and an IC50 (Adenosine receptor A1 [3]) of 1810 nM. It also gave an IC50 (Adenosine receptor A1 [4]) of 1700 nM, an inhibition (Adenosine receptor A2a [5]) of 59% and a Ki (Adenosine receptor A1 [6]) of 896 nM.

`Cc1[nH]c2nc(-c3ccccc3)nc(NCc3ccncc3)c2c1C` gave an IC50 (Adenosine receptor A2a [2]) of 2010 nM, a Ki (Adenosine receptor A2a [7]) of 811 nM and an IC50 (Adenosine receptor A1 [3]) of 262 nM. For the same compound, the IC50 (Adenosine receptor A1 [4]) was 222 nM, the IC50 (Adenosine receptor A2a [8]) was 1710 nM and the Ki (Adenosine receptor A1 [6]) was 132 nM.

Work on `Cc1[nH]c2nc(-c3ccccc3)nc(NCCCN3CCCC3=O)c2c1C` yielded an inhibition (Adenosine receptor A2a [1]) of 54%, an IC50 (Adenosine receptor A1 [4]) of 5650 nM and an inhibition (Adenosine receptor A2a [5]) of 54%. For the same compound, the inhibition (Adenosine receptor A2a [9]) was 58%, the inhibition [10] was 75% and the inhibition [11] was 75%.
